Experiments:
[1] = tested on: ECHCG; test: Pre-emergence action against ECHCG, 1280 g/ha; assay type: in vivo, Echinochloa crus-galli; settings: visual scoring after about 3 weeks vs untreated controls, 100% = plants have died, 0% = like control plants
Method in brief: (§1)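 Mono- and dicot weed seeds sown in sandy loam were treated on the covering soil surface with WP or EC formulations plus 0.5% additive at 600 L water/ha. Pots stayed in a greenhouse; damage was scored visually after ~3 weeks as percent versus untreated controls (100% = dead).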

[2] = tested on: POAAN; test: Pre-emergence action against POAAN, 1280 g/ha; assay type: in vivo, Poa annua; settings: visual scoring after about 3 weeks vs untreated controls, 100% = plants have died, 0% = like control plants
Method in brief: as §1

[3] = tested on: SETVI; test: Pre-emergence action against SETVI, 1280 g/ha; assay type: in vivo, Setaria viridis; settings: visual scoring after about 3 weeks vs untreated controls, 100% = plants have died, 0% = like control plants
Method in brief: as §1

[4] = tested on: AMARE; test: Pre-emergence action against AMARE, 1280 g/ha; assay type: in vivo, Amaranthus retroflexus; settings: scored visually after about 3 weeks vs untreated controls (100% = plants have died)
Method in brief: as §1

[5] = tested on: MATIN; test: Pre-emergence action against MATIN, 1280 g/ha; assay type: in vivo, Tripleurospermum inodorum (Matricaria inodora); settings: scored visually after about 3 weeks vs untreated controls (100% = plants have died)
Method in brief: as §1

[6] = tested on: STEME; test: Pre-emergence action against STEME, 1280 g/ha; assay type: in vivo, Stellaria media; settings: scored visually after about 3 weeks vs untreated controls (100% = plants have died)
Method in brief: as §1

[7] = tested on: ALOMY; test: Pre-emergence action at 320 g/ha against ALOMY; assay type: in vivo, Alopecurus myosuroides; settings: scored visually after about 3 weeks vs untreated controls (100% = plants have died)
Method in brief: (§2)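 Weed seeds sown in pots and covered with soil; compounds formulated as WP or EC were sprayed onto the soil surface as aqueous suspension or emulsion with 0.5% additive at 600 l/ha water. Pots kept in greenhouse; activity scored visually after about 3 weeks versus untreated controls (100% = plants dead, 0% = like control).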

[8] = tested on: DIGSA; test: Pre-emergence action at 320 g/ha against DIGSA; assay type: in vivo, Digitaria sanguinalis; settings: visual scoring after about 3 weeks vs untreated controls
Method in brief: as §2

[9] = tested on: SETVI; test: Pre-emergence action at 320 g/ha against SETVI; assay type: in vivo, Setaria viridis; settings: visual scoring after about 3 weeks vs untreated controls
Method in brief: as §2

[10] = tested on: AMARE; test: Pre-emergence action at 320 g/ha against AMARE; assay type: in vivo, Amaranthus retroflexus; settings: visual scoring after about 3 weeks vs untreated controls
Method in brief: as §2

[11] = tested on: POLCO; test: Pre-emergence action at 320 g/ha against POLCO; assay type: in vivo, Fallopia convolvulus (Polygonum convolvulus); settings: visual scoring after about 3 weeks vs untreated controls
Method in brief: as §2

[12] = tested on: POAAN; test: Post-emergence action against POAAN, 1.28 kg/ha; assay type: in vivo, Poa annua; settings: dosage 1280 g/ha, visual rating about 3 weeks after treatment vs untreated controls
Method in brief: (§3)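 Weeds grown in sandy loam in a greenhouse were sprayed at the one-leaf stage, 2–3 weeks after sowing, with WP or EC formulations in water containing 0.5% additive at 600 L/ha. About 3 weeks later, damage was scored visually versus untreated controls (0% = like control, 100% = dead).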

[13] = tested on: ABUTH; test: Post-emergence action against ABUTH, 1.28 kg/ha; assay type: in vivo, Abutilon theophrasti; settings: dosage 1280 g/ha, visual rating about 3 weeks after treatment vs untreated controls (100% = plants died)
Method in brief: as §3

[14] = tested on: SETVI; test: Post-emergence action at 320 g/ha against SETVI; assay type: in vivo, Setaria viridis; settings: visual rating about 3 weeks after treatment vs untreated controls
Method in brief: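 Greenhouse-grown plants sprayed post-emergence at the one-leaf stage, 2 to 3 weeks after sowing, with WP or EC formulations plus 0.5% additive at 600 l/ha water, at 320 g/ha. Activity rated visually after about 3 weeks versus untreated controls (100% = plants died, 0% = like control).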

| Compound | Pre-emergence action against ECHCG [1] [%] | Pre-emergence action against POAAN [2] [%] | Pre-emergence action against SETVI [3] [%] | Pre-emergence action against AMARE [4] [%] | Pre-emergence action against MATIN [5] [%] | Pre-emergence action against STEME [6] [%] | Pre-emergence action at 320 g/ha against ALOMY in % [7] [%] | Pre-emergence action against DIGSA in % [8] [%] | Pre-emergence action against SETVI in % [9] [%] | Pre-emergence action against AMARE in % [10] [%] | Pre-emergence action against POLCO in % [11] [%] | Post-emergence action against POAAN [12] [%] | Post-emergence action against ABUTH [13] [%] | Post-emergence action against SETVI in % [14] [%] |
| --- | --- | --- | --- | --- | --- | --- | --- | --- | --- | --- | --- | --- | --- | --- |
| COC(=O)COc1nn(-c2ccccc2)c(-c2ccc(F)nc2)c1Br [VII-018] | 100 | 100 | 100 | 100 | 90 | 100 | 100 | 100 | 100 | 100 | 100 | 100 | 90 | 80 |
| O=C(O)COc1nn(-c2ccccc2F)c(-c2cncc(F)c2)c1Br [VII-025] | 100 | 100 | 100 | 100 | 100 | 100 | 100 | 100 | 100 | 100 | 100 | 100 | 90 | 100 |
| COC(=O)C(C)Oc1nn(-c2ccccc2)c(-c2ccc(F)nc2)c1Br (stereo not drawn) [VII-026] | 90 | 100 | 100 | 100 | 90 | 90 | 100 | 100 | 80 | 100 | 100 | 100 | 90 | 90 |
| COC(=O)COc1nn(-c2ccc(F)cc2)c(-c2cccnc2)c1Br [VII-028] | 100 | 100 | 100 | 90 | 100 | 100 | 100 | 90 | 100 | 90 | 90 | 90 | 90 | 80 |
| COC(=O)COc1nn(-c2ccccc2F)c(-c2ccc(F)nc2)c1C(F)(F)F [VII-031] | 90 | 100 | 100 | 100 | 100 | 100 | 100 | 100 | 100 | 100 | 100 | 100 | 90 | 90 |
| COC(=O)C(C)Oc1nn(-c2ccccc2)c(-c2cccnc2)c1Cl (stereo not drawn) [VII-032] | 100 | 100 | 100 | 100 | 90 | 100 | 100 | 90 | 90 | 100 | 90 | 100 | 90 | 80 |
| COC(=O)COc1nn(-c2ccccc2F)c(-c2cncc(F)c2)c1Br [VII-035] | 100 | 100 | 100 | 100 | 100 | 100 | 100 | 100 | 100 | 100 | 90 | 100 | 90 | 90 |
| CCOC(=O)COc1nn(-c2ccccc2F)c(-c2ccc(F)nc2)c1I [VII-036] | 100 | 100 | 100 | 100 | 100 | 100 | 100 | 100 | 100 | 100 | 100 | 100 | 90 | 90 |
| O=C(O)COc1nn(-c2ccccc2F)c(-c2ccc(F)nc2)c1I [VII-037] | 100 | 100 | 100 | 100 | 100 | 100 | 100 | 100 | 100 | 100 | 100 | 100 | 90 | 80 |
| COC(=O)COc1nn(-c2ccccc2F)c(-c2ccc(F)nc2)c1F [VII-040] | 100 | 100 | 100 | 100 | 100 | 100 | 100 | 100 | 100 | 100 | 90 | 100 | 90 | 100 |
| O=C(COc1nn(-c2ccccc2F)c(-c2ccc(F)nc2)c1Br)OCC1CCOC1 (stereo not drawn) [VII-091] | 100 | 100 | 100 | 100 | 100 | 100 | 100 | 100 | 100 | 100 | 100 | 100 | 90 | 80 |
| COC(=O)[C@H](C)Oc1nn(-c2cc(F)ccc2F)c(-c2ccc(F)nc2)c1Br [VII-107] | 90 | 100 | 100 | 100 | 90 | 100 | 80 | 100 | 100 | 100 | 100 | 100 | 90 | 80 |

— US12180187B2, “1-phenyl-5-azinylpyrazolyl-3-oxyalkyl acids and their use for controlling unwanted plant growth” (BAYER AKTIENGESELLSCHAFT, priority 2019, dated 2024)
